{
  "source": "ChEMBL document CHEMBL5375954",
  "about": "“Discovery and Evaluation of C6-Substituted Pyrazolopyrimidine-Based Bisphosphonate Inhibitors of the Human Geranylgeranyl Pyrophosphate Synthase and Evaluation of Their Antitumor Efficacy in Multiple Myeloma, Pancreatic Ductal Adenocarcinoma, and Colorectal Cancer” (J Med Chem, 2023)",
  "key": {"Mus musculus": {"species_on_record": "Mus musculus", "assay": "Cytotoxicity against KPC mouse pancreatic cancer organoid ccmT4 at 1 uM incubated for 72 hrs by CellTiter-Glo luminescence based analysis", "assay_type": "functional, tissue-based"}, "[1]": {"biological_target": "T1, Ras-related protein Rap-1A (Homo sapiens) (UniProt P62834)", "T1 sequence (whole entry)": "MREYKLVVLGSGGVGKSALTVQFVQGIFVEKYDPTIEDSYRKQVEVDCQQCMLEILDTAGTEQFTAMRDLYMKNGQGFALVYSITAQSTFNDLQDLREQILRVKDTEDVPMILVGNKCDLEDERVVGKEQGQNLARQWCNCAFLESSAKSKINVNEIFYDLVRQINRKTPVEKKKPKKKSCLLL", "assay": "Inhibition of RAP-1A prenylation in human HCT-116 cells incubated for 48 hrs by Western blot analysis", "assay_type": "cell-based", "conditions": "dose 10-1000 nM"}, "[2]": {"assay": "Metabolic stability in Sprague-Dawley rat liver microsomes assessed as compound remaining incubated for 45 mins in absence of NADPH by LC-MS/MS analysis", "assay_type": "ADME, Microsome", "conditions": "0.75 h"}, "[3]": {"assay": "Hepatotoxicity in male NSG mouse xenografted with human RPMI-8226 cells assessed as vasculitis or perivasculitis at 3 mg/kg, ip administered 3 times a week for 26 days and measured 48 hrs post last dose by H and E staining based assay", "assay_type": "toxicity, organism-based", "conditions": "in vivo, 672 h, time 28 day"}, "MIA PaCa-2 [4]": {"system": "MIA PaCa-2", "assay": "Induction of apoptosis in human MIA PaCa-2 cells at 1 uM incubated for 72 hrs in presence of geranylgeraniol by APC-Annexin-V/7-AAD staining based flow cytometry", "assay_type": "functional, cell-based"}, "HCT-116 [5]": {"system": "HCT-116", "assay": "Induction of apoptosis in human HCT-116 cells assessed as live cells at 1 uM incubated for 72 hrs in presence of geranylgeraniol by APC-Annexin-V/7-AAD staining based flow cytometry (reference value: 95.3%)", "assay_type": "functional"}, "[6]": {"assay": "Toxicity in NSG mouse xenografted with human MIA PaCa-2 cells assessed as inflammation at site of injection at 3 mg/kg, ip administered 3 times a week for 26 days and measured daily", "assay_type": "organism-based", "conditions": "in vivo, time 26 day"}, "[7]": {"assay": "Hepatotoxicity in female NSG mouse xenografted with human RPMI-8226 cells assessed as serum AST level at 3 mg/kg, ip administered 3 times a week for 26 days and measured 48 hrs post last dose (reference value: 84 to 229 IU/L)", "assay_type": "toxicity, organism-based", "conditions": "in vivo, 672 h, time 28 day"}, "[8]": {"assay": "Toxicity in NSG mouse xenografted with human MIA PaCa-2 cells assessed as morbidity at 3 mg/kg, ip administered 3 times a week for 26 days and measured daily", "assay_type": "organism-based", "conditions": "in vivo, time 26 day"}, "[9]": {"assay": "AUC(0 to infinity) in Sprague-Dawley rat at 3 mg/kg, iv measured for 24 hrs by LC-MS/MS analysis", "assay_type": "ADME, organism-based", "set-up": "dose 3 mg/kg, time 24 hrs, route iv", "conditions": "in vivo"}, "HCT-116 [10]": {"system": "HCT-116", "assay": "Induction of apoptosis in human HCT-116 cells assessed as necrotic cells at 1 uM incubated for 72 hrs by APC-Annexin-V/7-AAD staining based flow cytometry (reference value: 2.99%)", "assay_type": "functional"}, "[11]": {"assay": "Metabolic stability in Beagle dog liver microsomes assessed as compound remaining incubated for 45 mins in absence of NADPH by LC-MS/MS analysis", "assay_type": "ADME, Canis lupus familiaris, Microsome", "conditions": "0.75 h"}, "[12]": {"biological_target": "T2, Farnesyl pyrophosphate synthase (Homo sapiens) (UniProt P14324)", "T2 sequence (whole entry)": "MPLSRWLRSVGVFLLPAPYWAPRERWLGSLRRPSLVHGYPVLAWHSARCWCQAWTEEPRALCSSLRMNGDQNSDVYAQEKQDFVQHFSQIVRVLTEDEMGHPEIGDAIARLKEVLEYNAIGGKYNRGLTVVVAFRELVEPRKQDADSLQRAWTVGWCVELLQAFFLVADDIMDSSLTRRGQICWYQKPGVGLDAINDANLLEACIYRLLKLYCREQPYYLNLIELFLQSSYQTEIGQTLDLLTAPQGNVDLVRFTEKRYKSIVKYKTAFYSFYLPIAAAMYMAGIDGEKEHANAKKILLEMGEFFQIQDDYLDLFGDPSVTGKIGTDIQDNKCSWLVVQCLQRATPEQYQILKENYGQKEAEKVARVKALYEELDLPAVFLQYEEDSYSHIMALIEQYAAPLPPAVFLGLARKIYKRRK", "assay": "Inhibition of N-terminally His6-tagged recombinant human FPPS expressed in Escherichia coli BL21(DE3) cells using […] and [14C]IPP as substrate at 10 uM preincubated for 10 mins followed by substrate addition by scintillation counting analysis relative to control"}, "RPMI-8226 [13]": {"system": "RPMI-8226", "assay": "Induction of ER stress in human RPMI-8226 cells at 1 uM", "assay_type": "functional, cell-based"}, "[14]": {"biological_target": "T3, Geranylgeranyl pyrophosphate synthase (Homo sapiens, UniProt O95749)", "T3 sequence (O95749 whole entry)": "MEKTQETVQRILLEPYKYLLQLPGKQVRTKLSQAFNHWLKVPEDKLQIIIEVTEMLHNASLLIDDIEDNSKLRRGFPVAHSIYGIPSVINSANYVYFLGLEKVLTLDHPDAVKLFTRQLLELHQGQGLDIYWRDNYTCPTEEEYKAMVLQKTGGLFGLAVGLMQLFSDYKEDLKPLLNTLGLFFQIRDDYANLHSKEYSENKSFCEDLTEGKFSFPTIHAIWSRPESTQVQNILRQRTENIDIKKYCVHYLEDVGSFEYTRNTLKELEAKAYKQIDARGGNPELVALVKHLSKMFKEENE", "assay": "Inhibition of N-terminal His6 tagged human GGPPS expressed in Escherichia coli BL21(DE3) cells in presence of FPP and [14C]IPP by scintillation counting analysis"}, "[15]": {"assay": "Hepatotoxicity in male NSG mouse xenografted with human RPMI-8226 cells assessed as single-cell necrosis at 3 mg/kg, ip administered 3 times a week for 26 days and measured 48 hrs post last dose by H and E staining based assay", "assay_type": "toxicity, organism-based", "conditions": "in vivo, 672 h, time 28 day"}, "HCT-116 [16]": {"system": "HCT-116", "assay": "Induction of apoptosis in human HCT-116 cells assessed as live cells at 1 uM incubated for 72 hrs by APC-Annexin-V/7-AAD staining based flow cytometry (reference value: 95.3%)", "assay_type": "functional"}, "[17]": {"assay": "Metabolic stability in Beagle dog liver microsomes assessed as compound remaining incubated for 45 mins in presence of NADPH by LC-MS/MS analysis", "assay_type": "ADME, Canis lupus familiaris, Microsome", "conditions": "0.75 h"}, "MIA PaCa-2 [18]": {"system": "MIA PaCa-2", "assay": "Induction of apoptosis in human MIA PaCa-2 cells assessed as live cells at 1 uM incubated for 72 hrs by APC-Annexin-V/7-AAD staining based flow cytometry (reference value: 97.7%)", "assay_type": "functional"}, "[19]": {"assay": "Selectivity index, ratio of EC50 for human MIA PaCa-2 cells to EC50 for human RPMI-8226 cells", "assay_type": "functional"}, "RPMI-8226 [20]": {"system": "RPMI-8226", "assay": "Antiproliferative activity against human RPMI-8226 cells harboring KRAS G12A mutant at 0.1 to 10000 nM incubated for 72 hrs by MTS assay", "assay_type": "functional, cell-based", "conditions": "dose 0.1-10000 nM"}, "[21]": {"assay": "Hepatotoxicity in female NSG mouse xenografted with human RPMI-8226 cells assessed as foci of bile ductular/oval cell proliferation at 3 mg/kg, ip administered 3 times a week for 26 days and measured 48 hrs post last dose by H and E staining based assay", "assay_type": "toxicity, organism-based, Bile duct", "conditions": "in vivo, 672 h, time 28 day"}, "[22]": {"assay": "Hepatotoxicity in male NSG mouse xenografted with human RPMI-8226 cells assessed as inflammatory infiltrates at 3 mg/kg, ip administered 3 times a week for 26 days and measured 48 hrs post last dose by H and E staining based assay", "assay_type": "toxicity, organism-based", "conditions": "in vivo, 672 h, time 28 day"}, "[23]": {"assay": "AUC(0 to t) in Sprague-Dawley rat at 3 mg/kg, iv measured for 24 hrs by LC-MS/MS analysis", "assay_type": "ADME, organism-based", "set-up": "dose 3 mg/kg, time 24 hrs, route iv", "conditions": "in vivo"}},
  "note": "The source made the active and inactive calls. The rule behind the calls is not given here.",
  "data": [
    {"smiles": "Cn1ncc2c(NC(P(=O)(O)O)P(=O)(O)O)nc(-c3cccc(C(=O)Nc4ccc(C(F)(F)F)cc4)c3)nc21", "values": [
      {"measurement": "Activity", "setting": "Mus musculus", "result": "Active"},
      {"measurement": "inhibition", "setting": "[1]", "result": "Dose-Dependent Effect"},
      {"measurement": "Stability", "setting": "[2]", "result": 99.3, "unit": "%"},
      {"measurement": "Activity", "setting": "[3]", "result": "Non-Toxic"},
      {"measurement": "Activity", "setting": "MIA PaCa-2 [4]", "result": "inactive"},
      {"measurement": "Activity", "setting": "HCT-116 [5]", "result": 93.2, "unit": "%"},
      {"measurement": "Activity", "setting": "[6]", "result": "Non-Toxic"},
      {"measurement": "Activity", "setting": "[7]", "result": 199, "unit": "IU/L"},
      {"measurement": "Activity", "setting": "[8]", "result": "Non-Toxic"},
      {"measurement": "AUC(0-inf)", "setting": "[9]", "result": 156, "unit": "µg·h/mL"},
      {"measurement": "Activity", "setting": "HCT-116 [10]", "result": 4.6, "unit": "%"},
      {"measurement": "Stability", "setting": "[11]", "result": 81.7, "unit": "%"},
      {"measurement": "inhibition", "setting": "[12]", "result": "< 10", "unit": "%"},
      {"measurement": "Activity", "setting": "RPMI-8226 [13]", "result": "Active"},
      {"measurement": "IC50", "setting": "[14]", "result": 12, "unit": "nM"},
      {"measurement": "Activity", "setting": "[15]", "result": "Non-Toxic"},
      {"measurement": "Activity", "setting": "HCT-116 [16]", "result": 56.6, "unit": "%"},
      {"measurement": "Stability", "setting": "[17]", "result": 87.7, "unit": "%"},
      {"measurement": "Activity", "setting": "MIA PaCa-2 [18]", "result": 32.1, "unit": "%"},
      {"measurement": "Ratio EC50", "setting": "[19]", "result": "~10"},
      {"measurement": "Activity", "setting": "RPMI-8226 [20]", "result": "Active"},
      {"measurement": "Activity", "setting": "[21]", "result": "Non-Toxic"},
      {"measurement": "Activity", "setting": "[22]", "result": "Non-Toxic"},
      {"measurement": "AUC(0-t) at 24 h", "setting": "[23]", "result": 254, "unit": "µg·h/mL"}
    ]}
  ]
}
